In ChEMBL document CHEMBL1146452, “Saponins from the flower buds of Buddleja officinalis” (J Nat Prod, 2004) one finds IC50 data, which are given here for 4 compounds.

The subject of the experiment is HL-60. In words: Cytotoxicity against human HL60 cells by MTT assay. The format is functional, cell-based. (Tetrazolium dyes change colour on reduction, which living cells bring about.)

SMILES strings stand for the structures.

Turning to `C[C@@H]1O[C@@H](O[C@H]2[C@H](O)[C@@H](O)[C@H](O[C@H]3[C@@H](O)[C@@H](C)O[C@@H](O[C@H]4CC[C@@]5(C)[C@@H](CC[C@]6(C)[C@@H]5C=CC5=C7CC(C)(C)CC[C@]7(CO)[C@@H](O)C[C@]56C)[C@]4(C)CO)[C@@H]3O[C@@H]3O[C@H](CO)[C@@H](O)[C@H](O)[C@H]3O)O[C@@H]2CO)[C@H](O)[C@H](O)[C@H]1O` [MIMENGOSIDE C], inhibition was half-maximal at 23.2 µM (IC50).

Turning to `C[C@H]1O[C@@H](O[C@H]2CC[C@@]3(C)[C@@H](CC[C@]4(C)[C@@H]3C=CC3=C5CC(C)(C)CC[C@]5(CO)[C@@H](O)C[C@]34C)[C@]2(C)CO)[C@H](O)[C@@H](O[C@@H]2O[C@H](CO)[C@@H](O[C@@H]3OC[C@@H](O)[C@H](O)[C@H]3O)[C@H](O)[C@H]2O)[C@H]1O` [MIMENGOSIDE D], the IC50 (commonly the concentration needed to halve the response being measured) turned out to be 26.7 µM.

In the case of `C[C@@H]1O[C@@H](O[C@H]2[C@H](O)[C@@H](O)[C@H](O[C@H]3[C@@H](O)[C@@H](C)O[C@@H](O[C@H]4CC[C@]5(C)C6=CC=C7[C@@H]8CC(C)(C)CC[C@]8(CO)[C@@H](O)C[C@@]7(C)[C@]6(C)CC[C@H]5[C@]4(C)CO)[C@@H]3O[C@@H]3O[C@H](CO)[C@@H](O)[C@H](O)[C@H]3O)O[C@@H]2CO)[C@H](O)[C@H](O)[C@H]1O` [MIMENGOSIDE E], the half-maximal inhibitory concentration (IC50) is 16.8 µM.

In the case of `C[C@H]1O[C@@H](O[C@H]2CC[C@]3(C)C4=CC=C5[C@@H]6CC(C)(C)CC[C@]6(CO)[C@@H](O)C[C@@]5(C)[C@]4(C)CC[C@H]3[C@]2(C)CO)[C@H](O)[C@@H](O[C@@H]2O[C@H](CO)[C@@H](O[C@@H]3OC[C@@H](O)[C@H](O)[C@H]3O)[C@H](O)[C@H]2O)[C@H]1O` [MIMENGOSIDE F], the IC50 turned out to be 22.7 µM.
